Experiments:
[1] = Partition coefficient (logD) (aqueous phase 0.1 N HCl)
[2] = Partition coefficient (logD) (0.01 N NaOH); type: physicochemical
[3] = target: T1, Dihydrofolate reductase (Gallus gallus, UniProt P00378)
T1 sequence (P00378 whole entry): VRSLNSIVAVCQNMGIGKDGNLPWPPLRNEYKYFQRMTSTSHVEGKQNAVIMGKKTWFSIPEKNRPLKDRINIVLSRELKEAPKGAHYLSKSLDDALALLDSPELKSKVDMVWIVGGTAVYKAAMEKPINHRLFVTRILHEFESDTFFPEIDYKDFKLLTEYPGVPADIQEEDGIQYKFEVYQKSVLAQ
Description: Inhibitory activity against chicken liver dihydrofolate reductase

[4] = target: Dihydrofolate reductase (Lactobacillus casei, UniProt P00381)
Sequence of Dihydrofolate reductase (Lactobacillus casei, UniProt P00381) (P00381 whole entry): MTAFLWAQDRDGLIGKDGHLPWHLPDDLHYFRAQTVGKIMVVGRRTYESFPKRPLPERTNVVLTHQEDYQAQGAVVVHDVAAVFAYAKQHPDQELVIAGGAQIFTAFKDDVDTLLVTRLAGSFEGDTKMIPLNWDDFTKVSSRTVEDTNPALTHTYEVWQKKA
Description: Inhibitory activity against Lactobacillus casei dihydrofolate reductase

[5] = Toxic index against Dihydrofolate reductase; type: ADME

Row | SMILES | logD ([1]; 0.1 N HCl (aqueous phase)) | logD ([2]; 0.01 N NaOH, read-out: logD) | Ki [3] | Ki [4] | other results
1 | CC(=O)Nc1ccc(Cc2cnc(N)nc2N)cc1[N+](=O)[O-] | -2.23 | – | – | – | –
2 | COc1cccc(Cc2cnc(N)nc2N)c1 | – | – | – | – | logD ([2]; octanol/water): 1.54
3 | Nc1ccc(Cc2cnc(N)nc2N)cc1 | – | 0.22 | – | – | –
4 | Nc1ncc(Cc2ccc(OC(F)(F)F)cc2)c(N)n1 | – | – | 47.9 µM | – | –
5 | CCOc1cc(Cc2cnc(N)nc2N)ccc1OCc1ccccc1 | 1 | – | 18.2 µM | 309 nM | –
6 | COc1cc(Cc2cnc(N)nc2N)ccc1OCc1ccccc1 | – | 2.66 | 19.1 µM | 316 nM | –
7 | Nc1ncc(Cc2ccccc2)c(N)n1 | – | – | – | – | logD ([2]; octanol/water): 1.54
8 | COc1ccc(Cc2cnc(N)nc2N)cc1C(F)(F)F | -0.18 | – | – | 79.4 nM | –
9 | Nc1ncc(Cc2ccc(O)c(O)c2)c(N)n1 | 2.08 | – | – | – | –
10 | CCCCOCc1cccc(Cc2cnc(N)nc2N)c1 | – | 2.88 | – | – | –
11 | COc1ccc(Cc2cnc(N)nc2N)cc1OCc1ccccc1 | – | 2.44 | 18.2 µM | 123 nM | –
12 | CS(=O)(=O)Oc1ccc(Cc2cnc(N)nc2N)cc1 | – | 0.6 | 49 µM | 324 nM | –
13 | COc1ccc(Cc2cnc(N)nc2N)cc1OS(C)(=O)=O | -1.92 | – | 29.5 µM | 214 nM | –
14 | COCCOc1c(Cc2cnc(N)nc2N)ccc(OC)c1OC | -1.81 | – | 229 µM | 550 nM | Toxic index [5]: 2.62
15 | COc1ccc(Cc2cnc(N)nc2N)cc1O | – | 0.74 | 141 µM | 257 nM | –
16 | Nc1ncc(Cc2cccc(O)c2)c(N)n1 | -1.34 | – | – | – | –
17 | CCCCCCCOc1ccc(Cc2cnc(N)nc2N)cc1 | – | – | – | 4170 nM | –
18 | COCCOc1ccc(Cc2cnc(N)nc2N)cc1OCCOC | – | – | – | – | logD ([1]; octanol/water): 1.89
19 | CCc1cc(Cc2cnc(N)nc2N)cc(CO)c1CO | -2.23 | – | 263 µM | 195 nM | Toxic index [5]: 3.13
20 | Nc1ncc(Cc2ccc(-c3ccccc3)cc2)c(N)n1 | 0.98 | – | 5.5 µM | 389 nM | –

Row | SMILES | logD ([1]; 0.1 N HCl (aqueous phase)) | logD ([2]; 0.01 N NaOH, read-out: logD) | Ki [3] | Ki [4] | other results
21 | Nc1ncc(Cc2ccc3c(c2)OCO3)c(N)n1 | – | – | 20.9 µM | 457 nM | –
22 | Nc1ncc(Cc2ccc(OCc3ccccc3)cc2)c(N)n1 | – | – | 14.8 µM | 447 nM | –
23 | CCCCCCCCOc1c(OC)cc(Cc2cnc(N)nc2N)cc1OC | – | – | 17 µM | 2000 nM | –
24 | CCCOc1cc(Cc2cnc(N)nc2N)cc(OCCC)c1 | – | – | 74.1 µM | 646 nM | –
25 | Cc1cc(C)cc(Cc2cnc(N)nc2N)c1 | – | – | – | 1350 nM | –
26 | Nc1ncc(Cc2ccc(O)cc2)c(N)n1 | -1.47 | – | 67.6 µM | 417 nM | –
27 | COCCOc1ccc(Cc2cnc(N)nc2N)cc1OC | -1.87 | – | 64.6 µM | 288 nM | –
28 | CCCOc1cc(Cc2cnc(N)nc2N)cc(OCC)c1 | – | – | 43.7 µM | 589 nM | –
29 | CCCCCCCCOc1cc(Cc2cnc(N)nc2N)ccc1OC | 2.54 | – | 19.5 µM | 316 nM | –
30 | CCc1cc(Cc2cnc(N)nc2N)cc(NC(C)=O)c1CO | -2.17 | – | 347 µM | 151 nM | Toxicity index [5]: 3.36
31 | COc1cc(Cc2cnc(N)nc2N)ccc1OS(C)(=O)=O | – | 0.6 | 25.7 µM | 363 nM | –
32 | CCc1cc(Cc2cnc(N)nc2N)cc(CC)c1CC | – | – | 5.62 µM | 132 nM | –
33 | C=C(C)c1c(OC)cc(Cc2cnc(N)nc2N)cc1OC | – | 2.07 | 67.6 µM | 45.7 nM | –
34 | COc1cc(Cc2cnc(N)nc2N)ccc1O | – | 0.64 | 49 µM | 339 nM | –
35 | CCOc1cc(Cc2cnc(N)nc2N)cc(OCC)c1 | – | – | 72.4 µM | 389 nM | –
36 | COc1cc(Cc2cnc(N)nc2N)cc(OC)c1N(C)C [ADITOPRIM] | – | – | 70.8 µM | 355 nM | –
37 | COc1cc(Cc2cnc(N)nc2N)cc(OC)c1Br [BRODIMOPRIM] | – | 2.01 | – | 52.5 nM | –
38 | COc1ccc(Cc2cnc(N)nc2N)cc1OC [DIAVERIDINE] | – | 0.97 | – | – | –
39 | CCOc1cc(Cc2cnc(N)nc2N)cc(OCC)c1-n1cccc1 [EPIROPRIM] | – | – | 46.8 µM | 46.8 nM | –
40 | COc1cc(Cc2cnc(N)nc2N)cc(OC)c1SC [METIOPRIM] | – | 1.54 | – | 56.2 nM | –

— ChEMBL document CHEMBL1124563, “On the structure selectivity problem in drug design. A comparative study of benzylpyrimidine inhibition of vertebrate and bacterial dihydrofolate reductase via molecular graphics and quantitative structure-activity relationships” (J Med Chem, 1989)
